Laboratory results from patent publication US11091786B2, “Butelase-mediated peptide ligation” (Nanyang Technological University, priority 2015, dated 2021).
Values after ≈ are worked out from the molar mass of the structure shown. Bridge positions count the residues as written; N and C are the ends. Square brackets hold non-standard residues; d marks the D form. Peptide text beside a SMILES is read from it. I, II: the chains in the order shown. βAla = NCCC(=O)O

Columns and labels:
Type in all cases: cell-based
[1] = tested on: drug-resistant strains
Protocol: (§1) The following protocol was applied to the radial diffusion assay.
(§2) 1. A single colony was picked and transferred into a 5 ml tube containing 2.5 ml TSB. The culture was shaken at 37° C. for 18 h.
(§3) 2. 50 μl of the stationary phase culture was diluted to 2.5 mL of autoclaved TSB (1:50 dilution) and shaken at 37° C. for another 3 h.
(§4) 3. This subculture was centrifuged at 5000 rpm for 5 min and the supernatant was discarded. The residual cells were washed with cold sterile 10 mM phosphate buffer, pH 7.4 and the buffer was discarded after centrifuge. 5 ml of the same buffer was added to resuspend the cells and its bacteria concentration was determined by measuring its optical density at 620 nm.
(§5) 4. 10 ml of antoclaved, molten underlay gel agar was transferred to a 15-ml eppendorf tube and mixed with 4×10^6 CFU of bacteria by vortexing. The mixture was then poured into a petri dish and gelled in less than […]. Wells were punched against the gel using a Pasteur pippette.
(§6) 5. Peptides to be tested were serially diluted and 3.5 μl of each sample was added to the well. The plates were incubated at 37° C. for 3 h with gel-side up.
(§7) 6. Next, each underlay gel was covered with 10 ml of overlay gel. After the gel solidified, the plates were turned gel-side up and incubated at 37° C. for overnight.
(§8) 7. The following morning, all the plates were taken out and the zone diameters were measured with ruler. All the samples were tested in duplicates and the results were averaged. The final minimum inhibition concentration (MIC) was determined using excel.
(§9) There is a growing interest to develop peptide-based antibiotics (Annu Rev Immunol. 1995, 13, 61-92; J Intern Med. 2003, 254, 197-215; Cent Eur J Biol 2007, 2, 1-33; Int J Pept Res Ther. 2010, 16, 199-213) because, compared with conventional antibiotics, they are less likely to develop drug resistance and have fewer side effects (J Med Chem. 2015, 58, 6533-6548; Biochemistry-Us. 2000, 39, 7159-7169; Eur J Biochem. 2000, 267, 3289-3300; Nucleic Acids Res. 2012, 40, W199-204). To apply the presently disclosed enzymatic method in preparing dendrimeric antimicrobials, inventors synthesized two antimicrobials 12 (bivalent) and 13 (tetravalent) (MS shown in supporting information) which harbored a tetrapeptide RLYR (SEQ ID NO:121) as the antibacterial sequence (Eur J Biochem. 2002, 269, 923-932) by ligating N-acetylated thiodepsipeptide 10 Ac-RLYRN-thioglc-V (SEQ ID NO:120) with dendron core 2 and 6 respectively. The RLYR (SEQ ID NO:121) tetrapeptide contains a BHHB motif (B=basic, H=hydrophobic) which is commonly found in certain potent and broad-spectrum β-stranded antimicrobial peptides (BioDrugs. 2013, 27, 479-493) such as PG (protegrins) (Febs Lett. 1993, 327, 231-236) and RTD-1 (rhesus monkey theta defensin) (Science. 1999, 286, 498-502). This consensus motif with positive charged and hydrophobic residues was successfully used as a dendrimeric antimicrobial in 2002 (Eur J Biochem. 2002, 269, 923-932). Such short peptide-based dendrimeric antimicrobials are broad-spectrum antibiotics and kill bacterial cells through electrostatic and hydrophobic interactions with the negatively charged microbial cytoplasmic membranes (Biochemistry-Us. 2009, 48, 5642-5657). Using a radial diffusion assay, inventors tested the antimicrobial activities against E. coli and S. aureus of these two dendrimeric peptides together with prototypical monomer 11 RLYR (SEQ ID NO:121), mono-, tri-lysine dendron core 2 and 6 for comparison. All assays were performed under a high-salt condition (100 mM NaCl) to simulate physiological conditions. […] The tetravalent dendrimeric structure 13 had further improved antimicrobial activities with MICs<3 μM against both strains. When testing 13 against several drug-resistant strains under high-salt condition, the tetramer construct was broadly active against all six tested strains with MICs ranging from 0.87 to 4.8 μM. […]

[2] = tested on: E. cloacae DM 09800; conditions: DM 09800, 18 h
Protocol: as §1, §2, §3, §4, §5, §6, §7, §8, §9

[3] = tested on: S. aureus DB 14329; conditions: DB 14329, 18 h
Protocol: as §1, §2, §3, §4, §5, §6, §7, §8, §9

[4] = tested on: P. aeruginosa DM 14158; conditions: DM 14158, 18 h
Protocol: as §1, §2, §3, §4, §5, §6, §7, §8, §9

[5] = tested on: K. species DR 13779; conditions: 18 h
Protocol: as §1, §2, §3, §4, §5, §6, §7, §8, §9

[6] = tested on: E. coli DU 09777; conditions: DU 09777, 18 h
Protocol: as §1, §2, §3, §4, §5, §6, §7, §8, §9

[7] = tested on: E. coli DM 04604; conditions: DM 04604, 18 h
Protocol: as §1, §2, §3, §4, §5, §6, §7, §8, §9

CC[C@H](C)[C@H](NC(=O)[C@H](CCCNC(=N)N)NC(=O)[C@H](CC(N)=O)NC(=O)[C@H](CCCNC(=N)N)NC(=O)[C@H](Cc1ccc(O)cc1)NC(=O)[C@H](CC(C)C)NC(=O)[C@H](CCCNC(=N)N)NC(C)=O)C(=O)NCCC(=O)NCCCC[C@H](NC(=O)CCNC(=O)[C@@H](NC(=O)[C@H](CCCNC(=N)N)NC(=O)[C@H](CC(N)=O)NC(=O)[C@H](CCCNC(=N)N)NC(=O)[C@H](Cc1ccc(O)cc1)NC(=O)[C@H](CC(C)C)NC(=O)[C@H](CCCNC(=N)N)NC(C)=O)[C@@H](C)CC)C(=O)NCCCC[C@H](NC(=O)[C@H](CCCCNC(=O)CCNC(=O)[C@@H](NC(=O)[C@H](CCCNC(=N)N)NC(=O)[C@H](CC(N)=O)NC(=O)[C@H](CCCNC(=N)N)NC(=O)[C@H](Cc1ccc(O)cc1)NC(=O)[C@H](CC(C)C)NC(=O)[C@H](CCCNC(=N)N)NC(C)=O)[C@@H](C)CC)NC(=O)CCNC(=O)[C@@H](NC(=O)[C@H](CCCNC(=N)N)NC(=O)[C@H](CC(N)=O)NC(=O)[C@H](CCCNC(=N)N)NC(=O)[C@H](Cc1ccc(O)cc1)NC(=O)[C@H](CC(C)C)NC(=O)[C@H](CCCNC(=N)N)NC(C)=O)[C@@H](C)CC)C(=O)N[C@@H](Cc1ccc(O)cc1)C(N)=O [Tetramer 13, (Ac-RLYRNRIβA)4K2KY] (I: Ac-RLYRNRI[βAla]KKY-NH2 / II: Ac-RLYRNRI[βAla]K / III: Ac-RLYRNRI[βAla] / IV: Ac-RLYRNRI[βAla]; amide I:9-IV:C, I:10-II:C, II:9-III:C)
MICs, broad-spectrum ([1]; all strains tested, including several drug-resistant bacterial strains): < 5 µM
MICs against all six tested drug-resistant strains ([1]; six drug-resistant strains, high-salt condition): 0.87 to 4.8 µM
MIC [2]: 0.9 µM (≈ 4.42 µg/mL)
MIC [3]: 4.8 µM (≈ 23.5 µg/mL)
MIC [4]: 2.3 µM (≈ 11.3 µg/mL)
MIC [5]: 1.5 µM (≈ 7.36 µg/mL)
MIC [6]: 2.2 µM (≈ 10.8 µg/mL)
MIC [7]: 4.5 µM (≈ 22.1 µg/mL)
